The record followed here is patent US9573961B2, “Inhibitors of the renal outer medullary potassium channel” (Merck Sharp & Dohme Corp., priority 2012, dated 2017).

Where two headings read alike, the source gives them in different places.

The IC50 is the concentration needed to halve the response being measured.

Experiment [1] has as its target Kir1.1 (ROMK1) (Homo sapiens (Human), UniProt P48048). In words: Electrophysiology Assay (whole cell voltage clamp, IonWorks Quattro). It counts as cell-based. The following applies: block during voltage step to 0 mV. In a few lines: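 CHO cells stably expressing the channel, induced overnight with 1 mM sodium butyrate, were recorded in amphotericin-perforated patch mode. The test pulse was a 100 ms step to 0 mV from −70 mV, then a −70 to +70 mV ramp, applied before and after a 6 min compound incubation. Current amplitudes were compared.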
In general terms: Patch clamp records ionic current or voltage across a cell membrane.

The target of experiment [2] is hROMK (hKir1.1) (Homo sapiens (Human), UniProt P48048). Description: Thallium Flux Assay (ROMK channel functional thallium flux, FLIPR-Tetra). It counts as cell-based. In short, it runs like this: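 HEK293 cells stably expressing hROMK loaded with FluxOR dye for 90 min, then incubated with compound for 30 min at 23-25 °C. Normalized to a 3 μM standard ROMK inhibitor as % fluorescence change.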
Sequence of hROMK (hKir1.1) (P48048 whole entry): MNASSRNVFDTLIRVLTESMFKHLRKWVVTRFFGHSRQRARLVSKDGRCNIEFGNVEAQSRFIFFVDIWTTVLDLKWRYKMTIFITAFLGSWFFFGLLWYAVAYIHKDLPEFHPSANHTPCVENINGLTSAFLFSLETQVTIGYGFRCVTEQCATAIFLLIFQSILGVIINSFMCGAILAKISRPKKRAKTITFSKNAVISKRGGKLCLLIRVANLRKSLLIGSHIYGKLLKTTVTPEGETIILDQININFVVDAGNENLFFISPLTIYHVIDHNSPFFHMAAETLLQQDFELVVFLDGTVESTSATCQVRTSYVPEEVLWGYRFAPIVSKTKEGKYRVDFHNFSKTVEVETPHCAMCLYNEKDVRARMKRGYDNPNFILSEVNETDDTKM

Where [3] appears, read: Chinese hamster ovary cells stably expressing Kir1.1, read-out: Electrophysiology IC50.
The mark [4] stands for this setting: HEK293 cells stably expressing hROMK (hKir1.1), read-out: Thallium Flux IC50.
Setting [5] is: Electrophysiology IC50, Chinese hamster ovary cells stably expressing Kir1.1.

Sequence of Kir1.1 (ROMK1) (P48048 whole entry): as above

Take `COc1cc([C@@H]2CN3CCN(C(=O)C4CCc5cc(-n6cnnn6)ccc54)C[C@H]3CO2)ccc1C#N` (stereo partly drawn) [Example 65, 2-methoxy-4-[(3R,9aS)-8-{[5-(1H-tetrazol-1-yl)-2,3-dihydro-1H-inden-1-yl]carbonyl}octahydropyrazino[2,1-c][1,4]oxazin-3-yl]benzonitrile]: the IC50 in experiment [1] (setting [3]) was found to be 350 nM; in experiment [2] (setting [4]), 400 nM.

On to `Cc1c(C#N)cccc1[C@@H]1CN2CCN(C(=O)Cc3ccc(-n4cnnn4)cc3)C[C@H]2CO1` [Example 42, 2-methyl-3-[(3R,9aS)-8-{[4-(1H-tetrazol-1-yl)phenyl]acetyl}octahydropyrazino[2,1-c][1,4]oxazin-3-yl]benzonitrile], for which the figures for the concentration for half-maximal inhibition (IC50) in experiment [1] (setting [3]) and in experiment [2] (setting [4]) were 130 nM and 90 nM, respectively.

As for `Cc1c([C@H]2CN3CCN(C(=O)Cc4ccc(-n5cnnn5)cc4)C[C@@H]3CO2)ccc2c1COC2=O` [Example 14, 4-methyl-5-[(3S,9aR)-8-{[4-(1H-tetrazol-1-yl)phenyl]acetyl}octahydropyrazino[2,1-c][1,4]oxazin-3-yl]-2-benzofuran-1(3H)-one], the IC50 in experiment [1] (setting [5]) amounted to 140 nM; in experiment [2] (setting [4]) it was 110 nM.

Consider `COc1cc(CC(=O)N2CCN3C[C@@H](c4ccc5c(c4)CCOC5=O)OC[C@@H]3C2)ccc1C#N` [Example 29, 2-methoxy-4-{2-oxo-2-[(3R,9aS)-3-(1-oxo-3,4-dihydro-1H-isochromen-6-yl)hexahydropyrazino[2,1-c][1,4]oxazin-8(1H)-yl]ethyl}benzonitrile], for which the IC50 was 130 nM in experiment [1] (setting [5]) and 300 nM in experiment [2] (setting [4]).

As to `Cc1c([C@@H]2CN3CCN(C(=O)Cc4ccc(-n5cnnn5)cc4Cl)C[C@H]3CO2)ccc(F)c1C#N` [Example 70, 3-[(3R,9aS)-8-{[2-chloro-4-(1H-tetrazol-1-yl)phenyl]acetyl}octahydropyrazino[2,1-c][1,4]oxazin-3-yl]-6-fluoro-2-methylbenzonitrile], the 50% inhibitory concentration (IC50) is 160 nM in experiment [1] (setting [5]) and 250 nM in experiment [2] (setting [4]).

Regarding `COc1cc(CC(=O)N2CCN3C[C@H](c4ccc5c(c4)CCOC5=O)OC[C@H]3C2)ccc1C#N` [Example 28, 2-methoxy-4-{2-oxo-2-[(3S,9aR)-3-(1-oxo-3,4-dihydro-1H-isochromen-6-yl)hexahydropyrazino[2,1-c][1,4]oxazin-8(1H)-yl]ethyl}benzonitrile], the figures for the half-inhibitory concentration (IC50) in experiment [1] (setting [5]) and in experiment [2] (setting [4]) were 130 nM and 330 nM, respectively.

As for `COc1cc(CC(=O)N2CCN3C[C@@H](c4ccc5c(c4)CCOC5=O)OC[C@@H]3C2)c(F)cc1C#N` [Example 30, 5-fluoro-2-methoxy-4-{2-oxo-2-[(3R,9aS)-3-(1-oxo-3,4-dihydro-1H-isochromen-6-yl)hexahydropyrazino[2,1-c][1,4]oxazin-8(1H)-yl]ethyl}benzonitrile], the IC50 in experiment [1] (setting [5]) was determined as 110 nM; in experiment [2] (setting [4]), 100 nM.

For the molecule `Cc1c([C@@H]2CN3CCN(C(=O)Cc4ccc(-n5cnnn5)cc4)C[C@H]3CO2)ccc2c1COC2=O` [Example 1A, 4-methyl-5-[(3R,9aS)-8-{[4-(1H-tetrazol-1-yl)phenyl]acetyl}octahydropyrazino[2,1-c][1,4]oxazin-3-yl]-2-benzofuran-1(3H)-one], the IC50 was found to be 100 nM in experiment [1] (setting [5]) and 30 nM in experiment [2] (setting [4]).

Consider `Cc1c([C@H]2CN3CCN(C(=O)C4CCCc5cc(-n6cnnn6)ccc54)C[C@H]3CO2)csc1C#N` (single isomer, unassigned) [Example 97], for which the results for the IC50 in experiment [1] (setting [3]) and in experiment [2] (setting [4]) were 280 nM and 620 nM, respectively.

For `Cc1c([C@H]2CN3CCN(C(=O)C4CCc5cc(-n6cnnn6)ccc54)C[C@H]3CO2)ccc(F)c1C#N` (single isomer, unassigned) [Example 98], the half-inhibitory concentration (IC50) in experiment [1] (setting [3]) is 140 nM; in experiment [2] (setting [4]), 170 nM.

Regarding `COc1cc(CC(=O)N2CCN3C[C@@H](c4ccc5c(c4)COC5=O)OC[C@@H]3C2)c(F)cc1C#N` [Example 10, 5-fluoro-2-methoxy-4-{2-oxo-2-[(3R,9aS)-3-(1-oxo-1,3-dihydro-2-benzofuran-5-yl)hexahydropyrazino[2,1-c][1,4]oxazin-8(1H)-yl]ethyl}benzonitrile], the IC50 stood at 90 nM in experiment [1] (setting [5]) and 130 nM in experiment [2] (setting [4]).

In the case of `O=C1OCc2c1ccc([C@H]1CN3CCN(C(=O)Cc4ccc(-n5cnnn5)cc4)C[C@H]3CO1)c2Cl` [Example 21, 4-chloro-5-[(3S,9aS)-8-{[4-(1H-tetrazol-1-yl)phenyl]acetyl}octahydropyrazino[2,1-c][1,4]oxazin-3-yl]-2-benzofuran-1(3H)-one], the IC50 in experiment [1] (setting [5]) and in experiment [2] (setting [4]) was 100 nM throughout.

On to `COc1cc([C@H]2CN3CCN(C(=O)C4CCc5cc(-n6cnnn6)ccc54)C[C@H]3CO2)ccc1C#N` (mixture of isomers) [Example 66, 2-methoxy-4-[(3S,9aS)-8-{[5-(1H-tetrazol-1-yl)-2,3-dihydro-1H-inden-1-yl]carbonyl}octahydropyrazino[2,1-c][1,4]oxazin-3-yl]benzonitrile], for which the concentration for half-maximal inhibition (IC50) is 490 nM in experiment [1] (setting [3]) and 370 nM in experiment [2] (setting [4]).

Turning to `Cc1c(C2CN3CCCN(C(=O)Cc4ccc(-n5cnnn5)cc4)CC3CO2)ccc2c1COC2=O` (stereo not shown) [Example 50, 4-methyl-5-(9-{[4-(1H-tetrazol-1-yl)phenyl]acetyl}octahydro-1H-[1,4]oxazino[4,3-a][1,4]diazepin-3-yl)-2-benzofuran-1(3H)-one], the results for the 50% inhibitory concentration (IC50) in experiment [1] (setting [5]) and in experiment [2] (setting [4]) were 180 nM and 740 nM, respectively.

Turning to `Cc1c([C@@H]2CN3CCN(C(=O)Cc4c(F)cc(-n5cnnn5)cc4F)C[C@@H]3CO2)ccc(F)c1C#N` [Example 53, 3-[(3R,9aR)-8-{[2,6-difluoro-4-(1H-tetrazol-1-yl)phenyl]acetyl}octahydropyrazino[2,1-c][1,4]oxazin-3-yl]-6-fluoro-2-methylbenzonitrile], the IC50 in experiment [1] (setting [3]) was 110 nM; in experiment [2] (setting [4]), 180 nM.

Turning to `Cc1c([C@H]2CN3CCN(C(=O)Cc4c(F)cc(-n5cnnn5)cc4F)C[C@H]3CN2)ccc(F)c1C#N` [Example 103], the IC50 came to 80 nM in experiment [1] (setting [5]) and 110 nM in experiment [2] (Thallium Flux IC50).

For the molecule `COc1cc([C@H]2CN3CCN(C(=O)Cc4ccc(-n5cnnn5)cc4)C[C@@H]3CO2)ccc1C#N` [Example 18, 2-methoxy-4-[(3S,9aR)-8-{[4-(1H-tetrazol-1-yl)phenyl]acetyl}octahydropyrazino[2,1-c][1,4]oxazin-3-yl]benzonitrile], the figures for the half-maximal inhibitory concentration (IC50) in experiment [1] (setting [5]) and in experiment [2] (setting [4]) were 110 nM and 250 nM, respectively.

Regarding `Cc1c([C@@H]2CN3CCN(C(=O)Cc4c(F)cc(-n5cnnn5)cc4F)C[C@H]3CO2)ccc(F)c1C#N` [Example 52, 3-[(3R,9aS)-8-{[2,6-difluoro-4-(1H-tetrazol-1-yl)phenyl]acetyl}octahydropyrazino[2,1-c][1,4]oxazin-3-yl]-6-fluoro-2-methylbenzonitrile], the half-inhibitory concentration (IC50) in experiment [1] (setting [3]) was found to be 70 nM; in experiment [2] (setting [4]), 170 nM.

Take `Cc1c([C@@H]2CN3CCN(C(=O)Cc4c(F)cc(-n5cnnn5)cc4F)C[C@H]3CN2)ccc(F)c1C#N` [Example 102]: the IC50 in experiment [1] (setting [5]) was determined as 160 nM; in experiment [2] (Thallium Flux IC50), 150 nM.

Regarding `COc1cc([C@@H]2CN3CCN(C(=O)C4CCc5cc(-n6cnnn6)ccc54)C[C@@H]3CO2)ccc1C#N` (stereo partly drawn) [Example 64, 2-methoxy-4-[(3R,9aR)-8-{[5-(1H-tetrazol-1-yl)-2,3-dihydro-1H-inden-1-yl]carbonyl}octahydropyrazino[2,1-c][1,4]oxazin-3-yl]benzonitrile], the IC50 was determined as 210 nM in experiment [1] (setting [3]) and 270 nM in experiment [2] (setting [4]).

Take `Cc1c([C@@H]2CN3CCN(C(=O)C4CCc5cc(-n6cnnn6)ccc54)C[C@H]3CO2)csc1C#N` (single isomer, unassigned) [Example 82]: the values for the IC50 in experiment [1] (setting [3]) and in experiment [2] (setting [4]) were 110 nM and 330 nM, respectively.

`O=C(Cc1ccc(-n2cnnn2)cc1)N1CCN2C[C@@H](c3ccc4nonc4c3)OC[C@@H]2C1` [Example 77, (3R,9aS)-3-(2,1,3-benzoxadiazol-5-yl)-8-{[4-(1H-tetrazol-1-yl)phenyl]acetyl}octahydropyrazino[2,1-c][1,4]oxazine]: the IC50 in experiment [1] (setting [5]) turned out to be 50 nM; in experiment [2] (setting [4]), 150 nM.

`Cc1c([C@@H]2CN3CCN(C(=O)C(C)c4ccc(-n5cnnn5)cc4)C[C@H]3CO2)ccc(F)c1C#N` (stereo partly drawn) [Example 45, 6-fluoro-2-methyl-3-[(3R,9aS)-8-{2-[4-(1H-tetrazol-1-yl)phenyl]propanoyl}octahydropyrazino[2,1-c][1,4]oxazin-3-yl]benzonitrile]: the IC50 is 210 nM in experiment [1] (setting [3]) and 330 nM in experiment [2] (setting [4]).

For the molecule `Cc1c([C@H]2CN3CCN(C(=O)Cc4ccc(-n5cnnn5)cc4)C[C@H]3CN2)ccc2c1COC2=O` [Example 100], the IC50 stood at 250 nM in experiment [1] (setting [5]) and 430 nM in experiment [2] (setting [4]).

Take `Cc1c([C@@H]2CN3CCN(C(=O)Cc4ccc5c(c4)COC5=O)C[C@H]3CO2)ccc(F)c1C#N` [Example 24, 6-fluoro-2-methyl-3-{(3R,9aS)-8-[(1-oxo-1,3-dihydro-2-benzofuran-5-yl)acetyl]octahydropyrazino[2,1-c][1,4]oxazin-3-yl}benzonitrile]: the figures for the 50% inhibitory concentration (IC50) in experiment [1] (setting [5]) and in experiment [2] (read-out: Thallium Flux IC50) were 80 nM and 60 nM, respectively.

With `COc1ccc([C@@H]2CN3CCN(C(=O)Cc4ccc(-n5cnnn5)cc4)C[C@H]3CO2)c(C)c1C#N` [Example 26, 6-methoxy-2-methyl-3-[(3R,9aS)-8-{[4-(1H-tetrazol-1-yl)phenyl]acetyl}octahydropyrazino[2,1-c][1,4]oxazin-3-yl]benzonitrile], the IC50 in experiment [1] (setting [3]) is 260 nM; in experiment [2] (setting [4]) it was 140 nM.
